Reference: article PMC8357487 (Current Research in Pharmacology and Drug Discovery, 2021)
Like-named read-outs stand apart in the source and are kept apart here.

How the values were obtained:
[1] = Cytotoxicity, MTS method, Calu-3; format: cell-based; details: human, Calu-3 cells
SARS-CoV-2 [2] = experiment: microbe, parasite or virus in culture; format: cell-based
[3] = Cytotoxicity, MTS method, Caco-2; format: cell-based; details: human, Caco-2 cells
[4] = Cytotoxicity, MTS method, Vero CCL-81; format: cell-based; details: African monkey, Vero CCL-81 cells
SARS-CoV-2 [5] = details: Caco-2 cells; ref Li et al., 2021a; cited from earlier work
icSARS-CoV-2-mNG = experiment: microbe, parasite or virus in culture; format: cell-based, SARS-CoV-2; details: for EC50: Severe acute respiratory syndrome coronavirus 2, Caco-2, 48 h, read-out: mean EC50, icSARS-CoV-2-mNG inhibition assay
[6] = Cytotoxicity, MTS method, Huh-7; format: cell-based, human; details: human, Huh-7 cells
[7] = humans; ref Humeniuk et al., 2020; cited from earlier work
[8] = monkeys; ref Warren et al., 2016; cited from earlier work
Huh-7 cells = experiment: Cytotoxicity, MTS method, Huh-7; format: cell-based, human; details: MTS
[9] = Severe acute respiratory syndrome coronavirus 2, 48 h
[10] = Severe acute respiratory syndrome coronavirus 2, Caco-2, 72 h
[11] = Severe acute respiratory syndrome coronavirus 2, Calu-3, 72 h

Question: What does the source list for `N#C[C@@]1(c2ccc3c(N)ncnn23)O[C@H](CO)[C@@H](O)[C@H]1O` [GS-441524]?
Answer: CC50 [1]: > 100 µM; EC50 (SARS-CoV-2 [2]; [9]): 0.8 µM; EC90 (SARS-CoV-2 [2]; [9]): 1.6 µM; EC50 (SARS-CoV-2 [2]; [10]): 0.08 µM; EC90 (SARS-CoV-2 [2]; [10]): 1.42 µM; EC50 (SARS-CoV-2 [2]; [11]): 0.25 µM; EC90 (SARS-CoV-2 [2]; [11]): 2.35 µM; CC50 [3]: > 100 µM; CC50 [4]: > 100 µM; Difference in EC50 between GS-441524 and remdesivir (SARS-CoV-2 [5]): 6 fold; EC50 difference of GS-441524 compared to remdesivir, icSARS-CoV-2-mNG assay (icSARS-CoV-2-mNG; Caco-2 cells): 70 fold; EC50 (icSARS-CoV-2-mNG): 1.3 µM; CC50 [6]: > 100 µM

Question: With `CCC(CC)COC(=O)[C@H](C)N[P@](=O)(OC[C@H]1O[C@@](C#N)(c2ccc3c(N)ncnn23)[C@H](O)[C@@H]1O)Oc1ccccc1` [Remdesivir] as the compound, how does the CC50 [1] read?
Answer: 72.8 µM

Question: And the plasma half-life [7]?
Answer: ~1 h

Question: And the plasma half-life [8]?
Answer: about 0.4 h

Question: And the EC50 (SARS-CoV-2 [2]; [9])?
Answer: 0.7 µM

Question: What about the EC90 (SARS-CoV-2 [2]; [9]) of the same compound?
Answer: 1.7 µM

Question: What about the EC50 (SARS-CoV-2 [2]; [10]) of the same compound?
Answer: 0.001 µM

Question: And the EC90 (SARS-CoV-2 [2]; [10])?
Answer: 0.022 µM

Question: What about the EC50 (SARS-CoV-2 [2]; [11]) of the same compound?
Answer: 0.11 µM

Question: What about the EC90 (SARS-CoV-2 [2]; [11]) of the same compound?
Answer: 0.49 µM

Question: And the CC50 [3]?
Answer: > 100 µM

Question: And the EC50 (icSARS-CoV-2-mNG)?
Answer: 0.018 µM

Question: What about the CC50 [6] of the same compound?
Answer: 2.1 µM

Question: What about the Cytotoxicity in words (Huh-7 cells) of the same compound?
Answer: quite toxic
